Experimental data published in ChEMBL document CHEMBL5550095 (Bioorg Med Chem, 2024).
Activity calls are given as the source filed them. The calls are words filed in the database; no cut-off is given here.

Experiments:
Plasmodium falciparum = experiment: Antiplasmodial activity against Plasmodium falciparum K1 infected in erythrocytes assessed as reduction in parasite DNA after 72 hrs by SYBR Green I fluorescence based assay; type: functional, organism-based; details: K1, Erythrocyte
[1] = Cytotoxicity against human HepG2 cells incubated for 72 hrs by MTT assay; type: toxicity, cell-based
[2] = Selectivity index, ratio of CC50 for human HepG2 cells to EC50 for Plasmodium falciparum K1; type: toxicity; details: read-out: Ratio CC50/EC50
[3] = Lipophilicity, logD of the compound at pH 7.4; type: physicochemical; details: buffer
[4] = Half-life in mouse plasma; type: ADME, cell-free
[5] = Half-life in mouse liver microsomes; type: ADME, Microsome
[6] = target: Bifunctional dihydrofolate reductase-thymidylate synthase (Plasmodium falciparum K1) (UniProt P13922); experiment: Inhibition of Plasmodium falciparum DHFR
[7] = Inhibition of Plasmodium falciparum PYK-1

Bifunctional dihydrofolate reductase-thymidylate synthase (Plasmodium falciparum K1), sequence (P13922 whole entry, looked up): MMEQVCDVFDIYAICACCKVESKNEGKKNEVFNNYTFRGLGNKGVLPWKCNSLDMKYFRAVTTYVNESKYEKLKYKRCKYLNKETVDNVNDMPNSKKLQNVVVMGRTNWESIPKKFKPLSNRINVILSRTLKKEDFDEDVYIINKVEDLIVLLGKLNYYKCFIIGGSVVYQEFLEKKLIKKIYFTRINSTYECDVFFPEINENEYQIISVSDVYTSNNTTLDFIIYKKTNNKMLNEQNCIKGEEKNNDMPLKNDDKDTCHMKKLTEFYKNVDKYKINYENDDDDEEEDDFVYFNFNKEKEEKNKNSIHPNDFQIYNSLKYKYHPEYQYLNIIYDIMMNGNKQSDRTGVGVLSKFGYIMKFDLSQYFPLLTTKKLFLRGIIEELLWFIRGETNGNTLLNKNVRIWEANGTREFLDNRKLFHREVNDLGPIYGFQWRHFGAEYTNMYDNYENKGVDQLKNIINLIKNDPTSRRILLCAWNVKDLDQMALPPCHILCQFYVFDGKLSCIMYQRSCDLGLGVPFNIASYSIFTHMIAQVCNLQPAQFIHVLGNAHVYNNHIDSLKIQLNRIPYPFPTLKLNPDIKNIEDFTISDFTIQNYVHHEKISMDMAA

Row | Structure (SMILES) | EC50 (Plasmodium falciparum) | selectivity ratio [2] | other results
1 | CC(C)(C)OC(=O)NCCOCCOCCNCc1ccc2c(Nc3ccc(Cl)cc3Cl)nc(C(Cl)(Cl)Cl)nc2c1 | 0.6 µM | 32 | CC50 at 72 h [1]: 19 µM
2 | Clc1ccc(Nc2nc(C(Cl)(Cl)Cl)nc3ccccc23)c(Cl)c1 |  |  | logD [3]: 3.6; half-life [4]: > 360 min; half-life [5]: 18 min; inhibition [6]: Active
3 | C[C@H]1[C@H](OC(=O)CCC(=O)O)O[C@@H]2O[C@@]3(C)CC[C@H]4[C@H](C)CC[C@@H]1[C@@]24OO3 [ARTESUNATE] | 0.004 µM |  | 
4 | CCN(CC)CCCC(C)Nc1ccnc2cc(Cl)ccc12 (configuration not stated) [CHLOROQUINE] | 0.5 µM | 60 | 
5 | Cc1ccc(C(=O)Nc2ccc(S(=O)(=O)O)c3cc(S(=O)(=O)O)cc(S(=O)(=O)O)c23)cc1NC(=O)c1cccc(NC(=O)Nc2cccc(C(=O)Nc3cc(C(=O)Nc4ccc(S(=O)(=O)O)c5cc(S(=O)(=O)O)cc(S(=O)(=O)O)c45)ccc3C)c2)c1 [SURAMIN] |  |  | IC50 [7]: 128 µM
6 | CC(C)(C)OC(=O)NCCCOCCOCCOCCCNCc1ccc2c(Nc3ccc(Cl)cc3Cl)nc(C(Cl)(Cl)Cl)nc2c1 | 0.15 µM | 21 | CC50 at 72 h [1]: 3.1 µM
7 | O=C(O)C(=O)O [OXALIC ACID] |  |  | IC50 [7]: 150 µM
8 | C[C@H]1c2cccc(O)c2C(=O)C2=C(O)[C@]3(O)C(=O)C(C(N)=O)=C(O)[C@@H](N(C)C)[C@@H]3[C@@H](O)[C@@H]21 [DOXYCYCLINE ANHYDROUS] | 5 µM | 4 | 
